Results on 2 compounds are retold here after patent US4465692A (Nelson Research & Development Company, priority 1982, dated 1984).

The target in one experiment is D-1 receptor. As to the kind of experiment: D-1 receptor in carp retina (in vitro). As to conditions: concentration of agonist required to inhibit the biochemical response by 50%, read-out: Fish retina D-1 receptor IC50.
For another experiment, the target named is D-2 receptor (Rattus norvegicus, UniProt P61169).
Chain of D-2 receptor (P61169 whole entry): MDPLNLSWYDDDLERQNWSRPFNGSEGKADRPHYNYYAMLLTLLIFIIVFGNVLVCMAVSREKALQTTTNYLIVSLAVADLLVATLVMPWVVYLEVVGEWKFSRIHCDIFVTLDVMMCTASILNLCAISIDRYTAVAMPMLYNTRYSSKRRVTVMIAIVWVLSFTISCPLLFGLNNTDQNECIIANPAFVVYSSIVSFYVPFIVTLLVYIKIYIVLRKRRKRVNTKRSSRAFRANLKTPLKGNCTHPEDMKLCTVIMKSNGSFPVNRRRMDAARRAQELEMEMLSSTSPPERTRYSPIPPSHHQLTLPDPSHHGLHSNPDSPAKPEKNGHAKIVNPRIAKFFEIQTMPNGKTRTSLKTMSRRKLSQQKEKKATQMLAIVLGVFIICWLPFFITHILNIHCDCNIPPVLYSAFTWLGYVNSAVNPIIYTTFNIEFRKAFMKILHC

With `CN1CCc2cccc3c2[C@H]1Cc1ccc(O)c(O)c1-3` [Apomorphine, reference compound], the half-maximal inhibitory concentration (IC50) at D-1 receptor is 1500 nM.

For `CCCN(CCc1ccccc1)C1CCc2c(O)cccc2C1` (stereo not shown) [PPHT, 2-(N-phenylethyl-N-propylamino)-5-hydroxytetralin], on D-1 receptor, the IC50 came out at 3700 nM. The “times more potent than apomorphine at the D-2 receptor” value at D-2 receptor (relative to apomorphine) was “approximately 40 times”. For the same compound, the “times more potent than dopamine at the D-2 receptor” value at D-2 receptor (relative to dopamine) is 250 times.

A word on the IC50: it is the concentration that inhibits the measured activity by half.
